Among the data in patent publication US12528790B2, “Amide derivative having antiviral activity” (Shionogi & Co., Ltd., priority 2020, dated 2026) are EC50 values, retold here.

Molecules are shown by their SMILES.

One test concerns RSV A2 strain. The experiment in a line: In vitro CPE (CytoPathic Effect) inhibition effect evaluation test, RSV type A. Format: cell-based. Conditions: human respiratory syncytial virus; inhibitory effect against RSV type A (RSV A2 strain), HEp-2 cells, CPE inhibition; read-out: EC50. Put shortly: (§1)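 EC50 is the concentration giving 50% inhibition of virus-induced cytopathic effect, fitted by nonlinear regression from CellTiter-Glo 2.0 viability. Compounds in 3-fold series were co-incubated at 37 °C with HEp-2 cells and RSV: A2 strain for 4 days, B (Wash/18537) for 5 days; uninfected wells served as control.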

For test [1], the system named is RSV B (Wash/18537 strain). The experiment in a line: In vitro CPE (CytoPathic Effect) inhibition effect evaluation test, RSV type B. The test is classed as cell-based. Conditions: human respiratory syncytial virus, inhibitory effect against RSV type B, CPE inhibition; read-out: EC50. Put shortly: as §1

For `CC(F)(F)c1nc(N2CC3(CCCCC3)c3cc(C(=O)N4CCN(CC(F)(F)F)CC4)ccc32)ncc1C(=O)NC1(C(=O)O)C2CC3CC(C2)CC1C3` (centres unmarked) [Compound I-608], the EC50 (in the test with RSV A2 strain; in test [1]) was under 10 nM in each case.
